Results taken from ChEMBL document CHEMBL6182949 (J Med Chem, 2025).

Assays:
[1] = Metabolic stability in dog liver microsome assessed as half life at 1 uM measured up to 60 mins in presence of NADPH by LC-MS/MS analysis; type: ADME, Canis lupus familiaris; details: liver microsomes
[2] = target: T1, Protein cereblon/Interleukin-1 receptor-associated kinase 4 (Homo sapiens, UniProt Q9NWZ3+Q96SW2); assay: PROTAC activity at CRBN/IRAK4 in human THP-1 cells assessed as induction of IRAK4 degradation incubated for 24 hrs by HiBiT lytic reagent based analysis relative to control; type: cell-based
Target sequence in this assay (Q96SW2 whole entry, looked up): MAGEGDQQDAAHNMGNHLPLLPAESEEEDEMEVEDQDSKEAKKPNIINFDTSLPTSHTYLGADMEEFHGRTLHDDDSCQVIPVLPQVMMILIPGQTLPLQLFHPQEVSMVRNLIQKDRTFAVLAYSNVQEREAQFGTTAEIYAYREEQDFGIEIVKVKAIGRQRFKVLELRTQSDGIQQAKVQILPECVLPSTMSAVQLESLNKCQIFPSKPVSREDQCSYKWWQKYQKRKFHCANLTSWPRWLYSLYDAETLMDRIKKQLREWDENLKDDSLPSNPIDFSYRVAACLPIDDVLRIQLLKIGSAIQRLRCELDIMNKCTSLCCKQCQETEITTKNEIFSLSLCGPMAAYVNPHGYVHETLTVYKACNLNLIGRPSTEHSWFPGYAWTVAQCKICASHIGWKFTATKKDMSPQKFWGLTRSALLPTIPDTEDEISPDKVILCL
Target sequence in this assay (Q9NWZ3 whole entry, looked up): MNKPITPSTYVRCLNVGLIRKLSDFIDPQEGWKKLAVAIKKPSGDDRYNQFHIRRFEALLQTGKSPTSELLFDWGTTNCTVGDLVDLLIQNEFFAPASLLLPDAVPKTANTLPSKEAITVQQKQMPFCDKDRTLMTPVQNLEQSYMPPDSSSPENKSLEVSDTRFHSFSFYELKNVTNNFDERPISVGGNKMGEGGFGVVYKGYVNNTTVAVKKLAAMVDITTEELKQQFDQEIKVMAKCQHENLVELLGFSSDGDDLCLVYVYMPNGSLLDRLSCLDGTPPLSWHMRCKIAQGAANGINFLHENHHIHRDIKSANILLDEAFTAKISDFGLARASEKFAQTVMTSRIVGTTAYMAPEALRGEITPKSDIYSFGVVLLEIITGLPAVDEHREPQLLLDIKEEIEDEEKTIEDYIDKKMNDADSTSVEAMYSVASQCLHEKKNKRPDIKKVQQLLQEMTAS

[3] = Metabolic stability in human liver microsome assessed as half life at 1 uM measured up to 60 mins in presence of NADPH by LC-MS/MS analysis; type: ADME; details: liver microsomes
[4] = Metabolic stability in mouse liver microsome assessed as half life at 1 uM measured up to 60 mins in presence of NADPH by LC-MS/MS analysis; type: ADME; details: liver microsomes
[5] = target: T1, Protein cereblon/Interleukin-1 receptor-associated kinase 4; assay: PROTAC activity at CRBN/IRAK4 in human THP-1 cells assessed as induction of IRAK4 degradation incubated for 24 hrs by HiBiT lytic reagent based analysis; type: cell-based
Target sequence in this assay (Q9NWZ3 whole entry): as the sequence (Q9NWZ3 whole entry, looked up) above
Target sequence in this assay (Q96SW2 whole entry): as the sequence (Q96SW2 whole entry, looked up) above

hERG (KCNH2) = hERG (KCNH2) (Homo sapiens, UniProt Q12809); assay: Inhibition of hERG expressed in HEK293 cells at 1 uM by manual patch clamp assay relative to control; type: toxicity, cell-based; details: HEK293 cells expressing hERG
Sequence of hERG (KCNH2) (Q12809 whole entry): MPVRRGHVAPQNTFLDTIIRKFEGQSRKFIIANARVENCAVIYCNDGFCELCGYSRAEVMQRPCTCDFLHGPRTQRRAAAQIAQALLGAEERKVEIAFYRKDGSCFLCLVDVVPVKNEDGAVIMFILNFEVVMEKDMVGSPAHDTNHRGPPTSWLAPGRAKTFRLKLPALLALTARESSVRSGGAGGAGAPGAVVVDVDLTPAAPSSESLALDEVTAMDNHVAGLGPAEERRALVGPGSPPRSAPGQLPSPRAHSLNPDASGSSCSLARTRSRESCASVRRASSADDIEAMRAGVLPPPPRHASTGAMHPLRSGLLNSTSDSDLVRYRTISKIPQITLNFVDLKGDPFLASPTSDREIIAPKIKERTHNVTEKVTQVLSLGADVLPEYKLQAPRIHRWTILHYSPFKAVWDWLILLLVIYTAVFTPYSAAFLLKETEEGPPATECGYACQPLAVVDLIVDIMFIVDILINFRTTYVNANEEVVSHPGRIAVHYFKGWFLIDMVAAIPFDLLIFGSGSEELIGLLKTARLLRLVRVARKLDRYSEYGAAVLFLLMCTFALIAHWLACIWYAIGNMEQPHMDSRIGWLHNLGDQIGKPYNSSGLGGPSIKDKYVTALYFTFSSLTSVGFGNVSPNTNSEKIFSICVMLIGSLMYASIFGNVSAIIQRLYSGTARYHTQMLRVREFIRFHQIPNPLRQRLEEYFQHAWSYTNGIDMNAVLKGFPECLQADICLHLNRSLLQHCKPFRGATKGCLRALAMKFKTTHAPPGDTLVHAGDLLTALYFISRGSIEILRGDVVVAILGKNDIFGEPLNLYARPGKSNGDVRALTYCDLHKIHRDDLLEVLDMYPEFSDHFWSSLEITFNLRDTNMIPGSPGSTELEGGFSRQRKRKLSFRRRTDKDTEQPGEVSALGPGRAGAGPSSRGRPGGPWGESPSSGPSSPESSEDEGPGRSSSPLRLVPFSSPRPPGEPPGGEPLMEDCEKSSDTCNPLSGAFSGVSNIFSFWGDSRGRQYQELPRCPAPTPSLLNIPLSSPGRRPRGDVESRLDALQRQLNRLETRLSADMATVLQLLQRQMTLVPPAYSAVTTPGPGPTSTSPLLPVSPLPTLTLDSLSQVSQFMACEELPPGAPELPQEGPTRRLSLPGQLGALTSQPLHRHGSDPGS

Row | SMILES | half-life at 1 µM [1] [min] | Emax [2] [%] | half-life at 1 µM [3] [min] | half-life at 1 µM [4] [min] | DC50 [5] [nM] | inhibition at 1 µM (hERG (KCNH2)) [%]
1 | Cn1c(=O)n(C2CCC(=O)NC2=O)c2cccc(C#CCO[C@H]3CC[C@@H](CN4CCC5(CC4)Cc4cc(NC(=O)c6coc7cccnc67)c(N6CCC(CO)CC6)cc4O5)CC3)c21 (some centres not stated) | 58 | 86 | 20 | 123 | 3.69 | 29
2 | Cn1c(=O)n(C2CCC(=O)NC2=O)c2cccc(C#CCO[C@H]3CC[C@H](C(=O)N4CCC5(CC4)Cc4cc(NC(=O)c6cnn7cccnc67)c(N6CCC(CO)CC6)cc4O5)CC3)c21 (some centres not stated) | > 184 | 86 | 39 | 63 | 2.78 | 2
3 | Cn1c(=O)n(C2CCC(=O)NC2=O)c2cccc(C#CCO[C@H]3CC[C@H](CN4CCC5(CC4)Oc4cc(N6CCC(CO)CC6)c(NC(=O)c6cnn7cccnc67)cc4C5=O)CC3)c21 (some centres not stated) |  | 20 |  |  | 1000 | 
4 | Cn1c(=O)n(C2CCC(=O)NC2=O)c2cccc(C#CCO[C@H]3CC[C@H](CN4CCC5(CCc6cc(NC(=O)c7cnn8cccnc78)c(N7CCC(CO)CC7)cc6O5)CC4)CC3)c21 (some centres not stated) |  | 46 |  |  | 8.48 | 
5 | CN(CCO)c1cc2c(cc1NC(=O)c1cnn3cccnc13)CC1(CCN(C[C@H]3CC[C@H](OCC#Cc4cccc5c4n(C)c(=O)n5C4CCC(=O)NC4=O)CC3)CC1)O2 (some centres not stated) |  | 44 |  |  | 6.44 | 
6 | Cn1c(=O)n(C2CCC(=O)NC2=O)c2cccc(C#CCO[C@H]3CC[C@@H](CN4CCC5(Cc6cc(NC(=O)c7cnn8cccnc78)c(N7CCC(CO)CC7)cc6O5)C4)CC3)c21 (some centres not stated) | 35 | 90 | 31 | 33 | 7.79 | 29
7 | Cn1c(=O)n(C2CCC(=O)NC2=O)c2cccc(C#CCO[C@H]3CC[C@@](F)(CN4CCC5(CC4)Cc4cc(NC(=O)c6cnn7cccnc67)c(N6CCC(CO)CC6)cc4O5)CC3)c21 (some centres not stated) | 1 | 91 | 7 | 16 | 14.8 | 8
8 | CN(CCCO)c1cc2c(cc1NC(=O)c1cnn3cccnc13)CC1(CCN(C[C@H]3CC[C@H](OCC#Cc4cccc5c4n(C)c(=O)n5C4CCC(=O)NC4=O)CC3)CC1)O2 (some centres not stated) |  | 68 |  |  | 6.92 | 
9 | Cc1cc(-c2nc(C(=O)Nc3cc4c(cc3N3CCC(CO)CC3)OC3(CCN(C[C@H]5CC[C@H](OCC#Cc6cccc7c6n(C)c(=O)n7C6CCC(=O)NC6=O)CC5)CC3)C4)co2)ccn1 (some centres not stated) | > 184 | 85 | 69 | 101 | 6.02 | 12
10 | Cn1c(=O)n(C2CCC(=O)NC2=O)c2cccc(C#CCO[C@H]3CC[C@H](CN4CCC5(CC4)Cc4cc(NC(=O)c6cnn7cccnc67)c(OCCC(C)(C)O)cc4O5)CC3)c21 (some centres not stated) |  | 49 |  |  | 9.37 | 
11 | Cn1c(=O)n(C2CCC(=O)NC2=O)c2cccc(C#CCO[C@H]3CC[C@H](CN4CCC5(CC4)Cc4cc(NC(=O)c6cnn7cccnc67)c(N6CCC(F)CC6)cc4O5)CC3)c21 (some centres not stated) |  | 85 |  |  | 6.38 | 
12 | Cn1c(=O)n(C2CCC(=O)NC2=O)c2cccc(C#CCO[C@H]3CC[C@H](CN4CCC5(CC4)Oc4cc(NC(=O)c6cnn7cccnc67)c(N6CCC(CO)CC6)cc4O5)CC3)c21 (some centres not stated) |  | 78 |  |  | 10.4 | 
13 | COCC1CCN(c2cc3c(cc2NC(=O)c2cnn4cccnc24)CC2(CCN(C[C@H]4CC[C@H](OCC#Cc5cccc6c5n(C)c(=O)n6C5CCC(=O)NC5=O)CC4)CC2)O3)CC1 (some centres not stated) |  | 62 |  |  | 3.9 | 
14 | Cn1c(=O)n(C2CCC(=O)NC2=O)c2cccc(C#CCO[C@H]3CC[C@H](CN4CCC5(CC4)Cc4cc(NC(=O)c6cnn7cccnc67)c(OC(F)F)cc4O5)CC3)c21 (some centres not stated) |  | 83 |  |  | 13 | 
15 | Cn1c(=O)n(C2CCC(=O)NC2=O)c2cccc(C#CCOC3CCN(C(=O)CN4CCC5(CC4)Cc4cc(NC(=O)c6cnn7cccnc67)c(N6CCC(CO)CC6)cc4O5)CC3)c21 (configuration not stated) | 6 |  | 4 | 21 | 1.92 | 
